Common to all, as to assay: NCI-60 cell line screen, 48 h
For assay [1], the system named is SF-295 CNS.
Assay [2] has as its system HCT-116 colon.
Assay [3] concerns HT29 colon.
The subject of assay [4] is OVCAR-8 ovarian.
Assay [5] concerns A498 renal.
Assay [6] relates to SF-539 CNS.
Assay [7] relates to UACC-257 melanoma.
Assay [8] has as its system NCI-H460 lung.
Assay [9] relates to SF-268 CNS.
Assay [10] deals with NCI-H226 lung.

For ten compounds, TGI and GI50 results are on record in PubChem BioAssay (NCI).

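Results reflect a 48-hour exposure of cells in 96-well plates to compound at five concentrations. Abbreviation: GI50, concentration required for 50% inhibition of growth. TGI marks complete inhibition of growth.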 A value given as a limit tells only on which side of the number the result lay.

On to `Clc1ccc(CCN2CCOCC2)c(Cl)c1`, for which the TGI in assay [1], in assay [2], in assay [3], in [4], in assay [5] and in assay [6] was more than 100 µM each time. The TGI in assay [7], in assay [8] and in [9] was more than 100 µM each time.
Turning to `CCCCCCCCSC(SCCCCCCCC)=C1C(=O)N(c2ccccc2)N=C1C`, the TGI in assay [1] was more than 100 µM; in assay [2], 38.7 µM; in assay [3], more than 100 µM; in assay [4], more than 100 µM; in assay [5], 92.7 µM; in assay [10], more than 100 µM. Also, the results for the TGI in assay [7], in assay [8] and in assay [9] were 93.1 µM, more than 100 µM and more than 100 µM, respectively.
Regarding `NC(=O)c1ccc(NC(=O)c2oc3ccccc3c2-c2cnn(-c3ccccc3)c2)cc1`, the GI50 is more than 35.5 µM in assay [1]; more than 100 µM in assay [4]; 60.8 µM in assay [5]; more than 100 µM in [6]; 2.98 µM in [10]; more than 100 µM in assay [7]. The GI50 is more than 100 µM in [8] and 5.79 µM in assay [9]. The TGI in assay [1], in [4], in assay [5], in assay [6], in assay [10] and in assay [7] was more than 100 µM throughout. The TGI in assay [8] and in assay [9] was more than 100 µM throughout.
As to `O=C1CCC(c2ccccc2)(c2ccccc2)CC1`, the TGI in assay [1], in [2], in assay [3], in assay [4], in assay [5] and in assay [10] was more than 100 µM in each case. In addition, the TGI in assay [7], in [8] and in assay [9] was more than 100 µM in each case.
As to `O=[N+]([O-])C(=C(c1ccccc1)c1ccccc1)[N+](=O)[O-]`, the TGI in [1] was found to be 26.3 µM; in assay [2], 26.3 µM; in [4], 21.5 µM; in assay [5] it was 28.6 µM; in assay [6] it was 26.5 µM; in assay [10], 61.5 µM. The TGI in assay [7] turned out to be 25.8 µM; in assay [8], 21 µM; in [9] it was 12.7 µM.
On to `CC(=O)OCC1OC(O[C@@H]2C[C@H]3C(C)(C)[C@H](OC(C)=O)CC[C@]3(C)[C@H]3CC[C@@H]4[C@]5(CC[C@@]4(C)[C@@]32C)O[C@@H]([C@H](O)C(C)(C)O)C[C@@H]5C)C(O)C(O)C1O` (stereo partly drawn), for which the GI50 was 6.43 µM in [1]; 3.81 µM in [2]; 1.83 µM in assay [3]; 9.35 µM in assay [4]; 11.7 µM in assay [5]; 10.7 µM in assay [10]. Moreover, the figures for the GI50 in [7], in [8] and in assay [9] were 11.4 µM, 6.54 µM and 9.34 µM, respectively. Moreover, the TGI stood at 19.2 µM in assay [1]; 15.1 µM in assay [2]; 4.28 µM in assay [3]; 23.7 µM in assay [4]; 25.9 µM in assay [5]; 28.2 µM in assay [10]. For the same compound, the TGI in assay [7] stood at 24 µM; in assay [8], 20.8 µM; in assay [9], 23.7 µM.
Take `OCC(O)C(OC1OC(CO)C(O)C(O)C1O)c1nn(-c2ccc(F)cc2)c2nc3cc(Cl)c(Cl)cc3cc12` (stereo not drawn): the TGI in assay [1], in assay [2], in assay [3], in assay [4], in assay [5] and in assay [6] was more than 100 µM in each case. Further, the TGI in assay [7], in assay [8] and in assay [9] was more than 100 µM in each case.
On to `Cc1cc(C(=O)NCCN(C)C)c2nc3ccccc3nc2c1`, for which the TGI is more than 27.8 µM in [1]; 16.3 µM in assay [2]; 19.1 µM in assay [3]; more than 76.6 µM in [4]; 16.4 µM in assay [5]; 19.4 µM in assay [6]. The TGI in assay [10] was found to be 14.3 µM; in assay [7], 17.2 µM.
On to `CN(C)/C(=N/C(=O)Nc1ccccc1)SCc1ccccc1`, for which the TGI in assay [1], in [3], in assay [4], in assay [5], in assay [6] and in assay [10] was more than 100 µM in each case. For the same compound, the TGI in assay [7] and in assay [9] was more than 100 µM in each case.
Take `NC(=O)c1ccc(-c2c3ccccc3cc3c2ccc2ccccc23)cc1`: the GI50 in assay [1] is 5.11 µM; in assay [2], 2.36 µM; in [4], 6.51 µM; in assay [5], 3.71 µM; in assay [6], 3.59 µM; in assay [10], 6.97 µM. The results for the GI50 in assay [7], in [8] and in [9] were 12.1 µM, 3.31 µM and 2.81 µM, respectively. Besides, the TGI turned out to be 31 µM in assay [1]; 10.8 µM in assay [2]; 36.3 µM in assay [4]; 24 µM in [5]; 15.5 µM in assay [6]; 52.3 µM in assay [10]. For the same compound, the TGI in assay [7] is more than 100 µM; in assay [8], 14.9 µM; in [9], 18.1 µM.
